Measurements published in ChEMBL document CHEMBL1146055, “Arylphthalazines. Part 2: 1-(Isoquinolin-5-yl)-4-arylamino phthalazines as potent inhibitors of VEGF receptors I and II” (Bioorg Med Chem Lett, 2006).

Assays:
[1] = molecular target: Vascular endothelial growth factor receptor 2 (Homo sapiens, UniProt P35968); test: Inhibition of VEGFR2 by HTRF assay
[2] = molecular target: Hepatocyte growth factor receptor (Homo sapiens) (UniProt P08581); test: Inhibition of c-Met at 10 uM
[3] = molecular target: Insulin-like growth factor 1 receptor (Homo sapiens) (UniProt P08069); test: Inhibition of IGF1R at 10 uM
[4] = molecular target: Epidermal growth factor receptor (Homo sapiens) (UniProt P00533); details: 10 uM
Description: Inhibition of EGFR at 10 uM

[5] = molecular target: Receptor-type tyrosine-protein kinase FLT3 (Homo sapiens) (UniProt P36888); test: Inhibition of FLT3 at 10 uM
[6] = molecular target: Insulin receptor (Homo sapiens) (UniProt P06213); test: Inhibition of InsR at 10 uM

Vascular endothelial growth factor receptor 2, sequence (P35968 whole entry): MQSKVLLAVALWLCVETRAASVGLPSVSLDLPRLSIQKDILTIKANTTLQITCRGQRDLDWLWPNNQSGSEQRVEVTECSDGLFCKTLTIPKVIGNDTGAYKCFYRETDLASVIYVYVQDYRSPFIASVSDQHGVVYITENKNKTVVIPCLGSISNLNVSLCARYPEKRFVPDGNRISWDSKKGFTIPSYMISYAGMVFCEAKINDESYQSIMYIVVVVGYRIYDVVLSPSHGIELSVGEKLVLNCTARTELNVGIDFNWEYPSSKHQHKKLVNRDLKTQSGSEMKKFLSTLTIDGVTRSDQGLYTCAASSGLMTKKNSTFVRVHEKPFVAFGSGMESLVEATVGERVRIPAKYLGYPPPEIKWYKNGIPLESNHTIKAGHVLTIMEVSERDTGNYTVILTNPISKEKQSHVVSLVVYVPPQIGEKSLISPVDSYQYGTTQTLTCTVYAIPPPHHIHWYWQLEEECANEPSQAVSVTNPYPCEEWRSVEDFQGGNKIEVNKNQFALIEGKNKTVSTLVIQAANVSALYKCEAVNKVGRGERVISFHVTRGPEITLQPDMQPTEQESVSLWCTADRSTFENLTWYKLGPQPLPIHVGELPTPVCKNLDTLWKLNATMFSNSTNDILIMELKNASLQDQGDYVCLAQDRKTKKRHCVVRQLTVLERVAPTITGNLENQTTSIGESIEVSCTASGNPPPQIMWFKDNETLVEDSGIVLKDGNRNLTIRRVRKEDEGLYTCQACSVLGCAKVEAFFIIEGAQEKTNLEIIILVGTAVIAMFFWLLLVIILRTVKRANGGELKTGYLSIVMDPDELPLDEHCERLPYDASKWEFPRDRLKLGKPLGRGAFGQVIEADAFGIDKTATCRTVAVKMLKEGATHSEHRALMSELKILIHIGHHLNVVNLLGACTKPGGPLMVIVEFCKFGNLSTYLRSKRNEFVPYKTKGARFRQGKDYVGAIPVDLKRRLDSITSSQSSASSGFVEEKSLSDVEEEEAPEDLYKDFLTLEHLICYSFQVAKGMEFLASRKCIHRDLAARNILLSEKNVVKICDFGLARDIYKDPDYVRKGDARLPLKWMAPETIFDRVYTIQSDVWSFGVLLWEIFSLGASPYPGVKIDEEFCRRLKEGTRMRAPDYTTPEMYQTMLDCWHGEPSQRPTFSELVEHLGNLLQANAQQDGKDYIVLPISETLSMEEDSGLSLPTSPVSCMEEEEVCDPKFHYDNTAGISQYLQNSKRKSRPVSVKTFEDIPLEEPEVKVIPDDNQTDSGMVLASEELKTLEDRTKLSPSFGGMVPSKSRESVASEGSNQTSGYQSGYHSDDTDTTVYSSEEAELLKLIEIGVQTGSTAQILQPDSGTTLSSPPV
Insulin-like growth factor 1 receptor (Homo sapiens), sequence (P08069 31-736 limits assumed): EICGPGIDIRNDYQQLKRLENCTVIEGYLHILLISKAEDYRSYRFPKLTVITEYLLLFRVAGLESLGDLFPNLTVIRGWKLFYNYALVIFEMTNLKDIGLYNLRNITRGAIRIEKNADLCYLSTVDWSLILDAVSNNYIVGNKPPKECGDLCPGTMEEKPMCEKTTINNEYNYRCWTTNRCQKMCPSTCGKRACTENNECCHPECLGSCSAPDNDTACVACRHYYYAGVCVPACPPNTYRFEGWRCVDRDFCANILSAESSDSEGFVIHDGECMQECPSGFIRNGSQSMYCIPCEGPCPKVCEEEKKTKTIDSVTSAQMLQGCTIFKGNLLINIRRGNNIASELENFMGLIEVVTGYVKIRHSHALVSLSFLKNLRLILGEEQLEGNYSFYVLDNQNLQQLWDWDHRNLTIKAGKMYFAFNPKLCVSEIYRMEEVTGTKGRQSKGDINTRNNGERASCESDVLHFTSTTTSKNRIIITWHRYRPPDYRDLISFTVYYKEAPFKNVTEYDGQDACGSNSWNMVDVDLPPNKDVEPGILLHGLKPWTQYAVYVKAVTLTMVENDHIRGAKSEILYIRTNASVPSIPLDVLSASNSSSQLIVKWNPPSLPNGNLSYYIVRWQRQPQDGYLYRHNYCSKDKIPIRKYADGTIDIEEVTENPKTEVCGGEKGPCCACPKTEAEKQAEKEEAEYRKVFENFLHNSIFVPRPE
Insulin-like growth factor 1 receptor (Homo sapiens), sequence (P08069 741-1367 limits assumed): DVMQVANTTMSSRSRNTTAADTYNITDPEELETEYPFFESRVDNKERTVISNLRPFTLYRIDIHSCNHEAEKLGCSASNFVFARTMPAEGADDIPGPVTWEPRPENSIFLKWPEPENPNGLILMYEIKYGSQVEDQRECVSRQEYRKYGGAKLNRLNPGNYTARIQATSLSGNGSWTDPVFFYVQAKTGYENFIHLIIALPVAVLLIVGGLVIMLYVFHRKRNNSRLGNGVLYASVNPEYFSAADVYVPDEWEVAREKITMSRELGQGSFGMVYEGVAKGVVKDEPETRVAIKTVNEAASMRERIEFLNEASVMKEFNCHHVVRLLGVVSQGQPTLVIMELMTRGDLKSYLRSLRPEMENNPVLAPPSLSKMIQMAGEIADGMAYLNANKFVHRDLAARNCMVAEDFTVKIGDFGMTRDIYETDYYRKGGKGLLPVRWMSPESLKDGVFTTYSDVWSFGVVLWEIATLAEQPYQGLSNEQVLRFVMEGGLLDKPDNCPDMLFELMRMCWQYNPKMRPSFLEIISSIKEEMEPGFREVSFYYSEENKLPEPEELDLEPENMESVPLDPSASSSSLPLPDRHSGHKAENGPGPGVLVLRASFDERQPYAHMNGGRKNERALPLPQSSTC
Hepatocyte growth factor receptor (Homo sapiens), sequence (P08581 whole entry): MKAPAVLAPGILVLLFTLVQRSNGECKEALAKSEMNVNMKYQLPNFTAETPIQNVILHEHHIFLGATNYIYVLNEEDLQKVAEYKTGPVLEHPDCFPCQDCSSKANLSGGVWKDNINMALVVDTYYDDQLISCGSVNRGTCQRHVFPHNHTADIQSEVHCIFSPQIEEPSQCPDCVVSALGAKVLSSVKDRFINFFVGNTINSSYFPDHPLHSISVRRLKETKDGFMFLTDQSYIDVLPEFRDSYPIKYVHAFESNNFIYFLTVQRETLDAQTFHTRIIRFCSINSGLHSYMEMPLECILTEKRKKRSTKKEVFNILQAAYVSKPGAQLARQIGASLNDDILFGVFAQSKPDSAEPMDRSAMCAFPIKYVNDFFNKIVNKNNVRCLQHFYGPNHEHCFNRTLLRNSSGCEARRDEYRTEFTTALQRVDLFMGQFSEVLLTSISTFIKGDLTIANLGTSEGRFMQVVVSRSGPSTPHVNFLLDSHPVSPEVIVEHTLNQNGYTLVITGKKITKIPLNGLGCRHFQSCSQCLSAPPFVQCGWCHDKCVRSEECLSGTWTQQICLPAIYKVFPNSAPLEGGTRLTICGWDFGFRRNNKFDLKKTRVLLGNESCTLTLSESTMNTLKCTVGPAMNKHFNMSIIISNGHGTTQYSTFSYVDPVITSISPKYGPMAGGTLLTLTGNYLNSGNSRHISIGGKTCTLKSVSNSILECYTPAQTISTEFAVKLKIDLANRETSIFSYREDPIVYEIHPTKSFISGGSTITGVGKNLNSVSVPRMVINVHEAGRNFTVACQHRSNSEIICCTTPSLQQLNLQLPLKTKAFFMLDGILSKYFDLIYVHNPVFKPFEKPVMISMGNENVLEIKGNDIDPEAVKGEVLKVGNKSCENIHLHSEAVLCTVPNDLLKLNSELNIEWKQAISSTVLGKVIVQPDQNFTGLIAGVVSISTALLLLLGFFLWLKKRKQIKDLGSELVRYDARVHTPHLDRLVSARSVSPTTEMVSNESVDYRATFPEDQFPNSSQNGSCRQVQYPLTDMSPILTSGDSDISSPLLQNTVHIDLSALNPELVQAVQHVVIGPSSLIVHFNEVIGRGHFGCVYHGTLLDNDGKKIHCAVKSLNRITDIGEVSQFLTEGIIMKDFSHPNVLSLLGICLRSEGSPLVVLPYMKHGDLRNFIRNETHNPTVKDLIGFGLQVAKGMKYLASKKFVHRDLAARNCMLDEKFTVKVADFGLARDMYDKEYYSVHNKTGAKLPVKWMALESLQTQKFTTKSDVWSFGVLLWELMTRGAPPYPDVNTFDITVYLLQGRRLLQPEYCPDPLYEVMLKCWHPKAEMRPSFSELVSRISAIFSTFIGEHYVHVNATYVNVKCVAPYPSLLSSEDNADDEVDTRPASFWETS
Receptor-type tyrosine-protein kinase FLT3 (Homo sapiens), sequence (P36888 whole entry): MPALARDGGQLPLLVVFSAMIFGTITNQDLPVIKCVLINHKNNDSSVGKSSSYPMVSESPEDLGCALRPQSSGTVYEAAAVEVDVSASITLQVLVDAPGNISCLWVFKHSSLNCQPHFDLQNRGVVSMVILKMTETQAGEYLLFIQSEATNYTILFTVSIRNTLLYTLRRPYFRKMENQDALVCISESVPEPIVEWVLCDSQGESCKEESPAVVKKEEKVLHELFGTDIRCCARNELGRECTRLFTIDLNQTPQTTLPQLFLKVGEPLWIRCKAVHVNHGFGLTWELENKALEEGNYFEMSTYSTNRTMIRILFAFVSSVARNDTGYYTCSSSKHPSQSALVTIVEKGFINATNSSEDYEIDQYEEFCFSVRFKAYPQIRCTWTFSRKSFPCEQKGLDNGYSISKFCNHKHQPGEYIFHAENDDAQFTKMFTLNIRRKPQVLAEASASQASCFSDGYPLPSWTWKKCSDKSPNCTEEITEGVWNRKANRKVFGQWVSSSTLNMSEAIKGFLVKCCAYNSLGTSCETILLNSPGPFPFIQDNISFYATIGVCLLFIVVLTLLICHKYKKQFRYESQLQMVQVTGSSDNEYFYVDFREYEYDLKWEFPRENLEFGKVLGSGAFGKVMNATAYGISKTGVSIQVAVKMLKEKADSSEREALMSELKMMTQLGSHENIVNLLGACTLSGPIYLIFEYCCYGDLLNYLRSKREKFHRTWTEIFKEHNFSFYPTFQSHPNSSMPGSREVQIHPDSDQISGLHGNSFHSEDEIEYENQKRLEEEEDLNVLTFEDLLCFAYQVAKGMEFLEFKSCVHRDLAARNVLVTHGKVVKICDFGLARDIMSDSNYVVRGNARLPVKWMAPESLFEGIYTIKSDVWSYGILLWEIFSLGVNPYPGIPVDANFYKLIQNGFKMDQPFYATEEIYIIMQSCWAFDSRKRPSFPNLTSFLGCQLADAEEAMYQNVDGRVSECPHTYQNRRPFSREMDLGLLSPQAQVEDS

Row | Compound | IC50 [1] [µM] | inhibition [2] [%] | inhibition [3] [%] | inhibition [4] [%] | inhibition [5] [%] | inhibition [6] [%]
1 | Clc1ccc(Nc2nnc(-c3cn[nH]c3)c3ccccc23)cc1 | > 10 | – | – | – | – | –
2 | Clc1ccc(Nc2nnc(-c3cccc4cnccc34)c3ccccc23)cc1 | 0.048 | 2 | 25 | 13 | 33 | 10
3 | Cn1cc(-c2nnc(Nc3ccc(Cl)cc3)c3ccccc23)cn1 | > 10 | – | – | – | – | –
